Assay results from patent publication US10463644B2, “Uses of sesquiterpene lactone compounds and their derivatives in drugs preparation” (ACCENDATECH, priority 2013, dated 2019).
Read-outs that look alike come from different tables or passages of the source.

Legend:
cancer cells = assay: Survival rate of cancer cells after test compound is added (flow cytometry, Annexin V-FITC/PI, clinical specimen); format: cell-based, patient; details: Homo sapiens, 18 h, read-out: Survival rate (%) All cells (Stem cells and ordinary cells)
Method in brief: (§1)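 Patient tumour or leukaemia cells, identified by cancer-specific stem-cell markers (CD34+/CD38+ for AML), are treated with compound for 18 hours in serum-free IMDM. Apoptosis is then measured as Annexin V-FITC/PI staining by flow cytometry.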

[1] = test system: PGE2 secreted by synoviocyte; assay: Content of PGE2 in culture supernatant of synoviocyte of RA model rats given test compound; format: in vivo; details: rat RA model, dose 30 mg/kg.2d; normal control 8.34 ± 1.29, NaCl 32.44 ± 10.32
Method in brief: (§2)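 RA model rats received test compound at 30 mg/kg.2d, with normal control and NaCl groups run in parallel. Synoviocytes were then cultured from the animals, and the culture supernatant was assayed for secreted cytokine or PGE2.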

normal cells = assay: Survival rate of normal cells after test compound is added (flow cytometry, Annexin V-FITC/PI); format: cell-based; details: 18 h
Method in brief: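 Steps: density-gradient isolation of mononuclear cells from fresh or cryopreserved clinical samples; 18-hour compound exposure at 1×10^6 cells/mL; staining for stem-cell surface markers, then Annexin V-FITC and PI; flow cytometric apoptosis analysis.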

cancer stem cells = assay: Survival rate of cancer stem cells after test compound is added (flow cytometry, Annexin V-FITC/PI, clinical specimen); format: cell-based, patient; details: Homo sapiens, 18 h
Method in brief: as §1

[2] = test system: IL-1β secreted by synoviocyte; assay: Content of IL-1β in culture supernatant of synoviocyte of RA model rats given test compound; format: in vivo; details: rat RA model, dose 30 mg/kg.2d; normal control 0.16 ± 0.034, NaCl 0.49 ± 0.136
Method in brief: as §2

[3] = Head and neck squamous cell carcinomas
[4] = read-out: Survival rate (%) All cells (Stem cells and ordinary cells)
[5] = read-out: Survival rate (%) Stem cells

`CN(C)C[C@@H]1C(=O)O[C@H]2[C@H]1CCC1(CC1)[C@@H]1CCC3(CC3)[C@H]21` [Compound 35] gave a viability at 10 µM (cancer cells; AML) of 91%, a viability at 20 µM (cancer cells; AML) of 87% and a viability at 10 µM (cancer cells; Brain glioma) of 92%. For the same compound, the viability at 20 µM (cancer cells; Brain glioma) was 87%, the viability at 10 µM (cancer cells; Brain tumor) was 87% and the viability at 20 µM (cancer cells; Brain tumor) was 83%. For the same compound, the viability at 10 µM (cancer cells; Breast cancer) was 93%, the viability at 20 µM (cancer cells; Breast cancer) was 92% and the viability at 10 µM (cancer cells; CLL) was 87%. For the same compound, the viability at 20 µM (cancer cells; CLL) was 83%, the viability at 10 µM (cancer cells; CML) was 91% and the viability at 20 µM (cancer cells; CML) was 88%. For the same compound, the viability at 10 µM (cancer cells; Children hepatoblastoma) was 94%, the viability at 20 µM (cancer cells; Children hepatoblastoma) was 87% and the viability at 10 µM (cancer cells; Colon adenocarcinoma) was 91%. The viability at 20 µM (cancer cells; Colon adenocarcinoma) was 88%, the viability at 10 µM (cancer cells; Colorectal cancer) was 91% and the viability at 20 µM (cancer cells; Colorectal cancer) was 87%. For the same compound, the viability at 10 µM (cancer cells; Gastric cancer) was 92%, the viability at 20 µM (cancer cells; Gastric cancer) was 89% and the viability at 10 µM (cancer cells; Gastrointestinal tumor) was 92%. For the same compound, the viability at 20 µM (cancer cells; Gastrointestinal tumor) was 89%, the viability at 10 µM (cancer cells; Glioma) was 87% and the viability at 20 µM (cancer cells; Glioma) was 83%. For the same compound, the viability at 10 µM (cancer cells; [3]) was 91%, the viability at 20 µM (cancer cells; [3]) was 87% and the viability at 10 µM (cancer cells; Laryngeal cancer) was 89%. It also gave a viability at 20 µM (cancer cells; Laryngeal cancer) of 86%, a viability at 10 µM (cancer cells; Liver cancer) of 89% and a viability at 20 µM (cancer cells; Liver cancer) of 86%. For the same compound, the viability at 10 µM (cancer cells; Lung adenocarcinoma) was 91%, the viability at 20 µM (cancer cells; Lung adenocarcinoma) was 87% and the viability at 10 µM (cancer cells; Lung cancer) was 91%. For the same compound, the viability at 20 µM (cancer cells; Lung cancer) was 88%, the viability at 10 µM (cancer cells; Malignant melanoma) was 91% and the viability at 20 µM (cancer cells; Malignant melanoma) was 84%. The viability at 10 µM (cancer cells; Nasopharynx cancer) was 93%, the viability at 20 µM (cancer cells; Nasopharynx cancer) was 92% and the viability at 10 µM (cancer cells; Ovarian cancer) was 91%. The viability at 20 µM (cancer cells; Ovarian cancer) was 88%, the viability at 10 µM (cancer cells; Pancreatic cancer) was 88% and the viability at 20 µM (cancer cells; Pancreatic cancer) was 81%. The viability at 10 µM (cancer cells; Prostate cancer) was 88%, the viability at 20 µM (cancer cells; Prostate cancer) was 85% and the viability at 10 µM (cancer cells; Retinoblastoma) was 91%. The viability at 20 µM (cancer cells; Retinoblastoma) was 89%, the viability at 10 µM (cancer cells; Skin cancer) was 92% and the viability at 20 µM (cancer cells; Skin cancer) was 89%. The “Content of PGE2 in culture supernatant of synoviocyte (x ± s)” value [1] was 21.54 ± 1.32 ng/mL, the viability at 10 µM (normal cells; [4]) was 95% and the viability at 10 µM (normal cells; [5]) was 91%. For the same compound, the viability at 20 µM (normal cells; [4]) was 94%, the viability at 20 µM (normal cells; [5]) was 90% and the viability at 10 µM (cancer stem cells; AML) was 82%. It also gave a viability at 20 µM (cancer stem cells; AML) of 73%, a viability at 10 µM (cancer stem cells; Brain glioma) of 84% and a viability at 20 µM (cancer stem cells; Brain glioma) of 78%. It also gave a viability at 10 µM (cancer stem cells; Brain tumor) of 81%, a viability at 20 µM (cancer stem cells; Brain tumor) of 75% and a viability at 10 µM (cancer stem cells; Breast cancer) of 86%. For the same compound, the viability at 20 µM (cancer stem cells; Breast cancer) was 78%, the viability at 10 µM (cancer stem cells; CLL) was 81% and the viability at 20 µM (cancer stem cells; CLL) was 75%. The viability at 10 µM (cancer stem cells; CML) was 84%, the viability at 20 µM (cancer stem cells; CML) was 78% and the viability at 10 µM (cancer stem cells; Children hepatoblastoma) was 87%. The viability at 20 µM (cancer stem cells; Children hepatoblastoma) was 76%, the viability at 10 µM (cancer stem cells; Colon adenocarcinoma) was 84% and the viability at 20 µM (cancer stem cells; Colon adenocarcinoma) was 78%. For the same compound, the viability at 10 µM (cancer stem cells; Colorectal cancer) was 82%, the viability at 20 µM (cancer stem cells; Colorectal cancer) was 73% and the viability at 10 µM (cancer stem cells; Gastric cancer) was 85%. It also gave a viability at 20 µM (cancer stem cells; Gastric cancer) of 77%, a viability at 10 µM (cancer stem cells; Gastrointestinal tumor) of 85% and a viability at 20 µM (cancer stem cells; Gastrointestinal tumor) of 77%. The viability at 10 µM (cancer stem cells; Glioma) was 81%, the viability at 20 µM (cancer stem cells; Glioma) was 75% and the viability at 10 µM (cancer stem cells; [3]) was 82%. For the same compound, the viability at 20 µM (cancer stem cells; [3]) was 73%, the viability at 10 µM (cancer stem cells; Laryngeal cancer) was 82% and the viability at 20 µM (cancer stem cells; Laryngeal cancer) was 76%. The viability at 10 µM (cancer stem cells; Liver cancer) was 84%, the viability at 20 µM (cancer stem cells; Liver cancer) was 74% and the viability at 10 µM (cancer stem cells; Lung adenocarcinoma) was 82%. It also gave a viability at 20 µM (cancer stem cells; Lung adenocarcinoma) of 73%, a viability at 10 µM (cancer stem cells; Lung cancer) of 84% and a viability at 20 µM (cancer stem cells; Lung cancer) of 78%. The viability at 10 µM (cancer stem cells; Malignant melanoma) was 87%, the viability at 20 µM (cancer stem cells; Malignant melanoma) was 75% and the viability at 10 µM (cancer stem cells; Nasopharynx cancer) was 86%. The viability at 20 µM (cancer stem cells; Nasopharynx cancer) was 78%, the viability at 10 µM (cancer stem cells; Ovarian cancer) was 84% and the viability at 20 µM (cancer stem cells; Ovarian cancer) was 78%. For the same compound, the viability at 10 µM (cancer stem cells; Pancreatic cancer) was 79%, the viability at 20 µM (cancer stem cells; Pancreatic cancer) was 72% and the viability at 10 µM (cancer stem cells; Prostate cancer) was 85%. The viability at 20 µM (cancer stem cells; Prostate cancer) was 79%, the viability at 10 µM (cancer stem cells; Retinoblastoma) was 88% and the viability at 20 µM (cancer stem cells; Retinoblastoma) was 81%. The viability at 10 µM (cancer stem cells; Skin cancer) was 85%, the viability at 20 µM (cancer stem cells; Skin cancer) was 77% and the “Content of IL-1β in culture supernatant of synoviocyte (x ± s)” value [2] was 0.41 ± 0.056 ng/mL.
